Results reported in article PMC9127750, “Structure-based design of CDC42 effector interaction inhibitors for the treatment of cancer” (Cell reports, 2022).
Several values for one entry are separate records, joined by “and”; a condition that tells them apart may be missing. Equal values may be shown once.

Tested on: WM3248 melanoma cells, 486 antibodies
Test: Reverse phase protein arrays (RPPA)
Format: cell-based, Human
Details: 20 uM, single replicates
Excerpt: Pellets were snap frozen in liquid nitrogen and shipped to MD Anderson Cancer Center core RPPA facility for RPPA analysis (Table S5). Three biological replicates for each sample were generated.
Nomenclatures on the RPPA heatmaps: name_of_antibody.species_of_antibody.status_of_antibody. V - antibody validated; C - validation of antibody in progress; Q - antibody nonspecific; E – under evaluation; antibodies raised in M - mouse, G - goat, R - rabbit, or T - rat.

## CN(C)c1cccc(Nc2cc(-c3ccccc3)nc(C3CCNCC3)n2)c1 [ARN22089, N1,N1-dimethyl-N3-(6-phenyl-2-(piperidin-4-yl)pyrimidin-4-yl)benzene-1,3-diamine]
  RPPA PYGB.R.V: 1.097 and 1.103
  RPPA PYGM.M.C: 0.934 and 0.932 and 1.083
  RPPA Patched.R.C: 0.965 and 1.140 and 1.132
  RPPA Paxillin.R.C: 0.641 and 0.823 and 1.018
  RPPA Pdcd4.R.C: 0.925 and 0.993 and 1.052
  RPPA Porin.M.V: 1.104 and 0.957
  RPPA Puma.R.C: 0.983 and 0.942 and 1.107
  RPPA Pyk2_pY402.R.C: 0.954 and 1.153 and 1.099
  RPPA RBM15.R.V: 1.017 and 0.937 and 1.032
  RPPA RIP3.R.C: 0.931 and 0.981
  RPPA RIP.R.C: 0.915 and 1.063
  RPPA RPA32.R.V: 1.148 and 1.033 and 1.052
  RPPA RPA32_pS4_S8.R.C: 2.002 and 1.599 and 0.993
  RPPA RRM1.R.C: 0.824 and 0.941
  RPPA RRM2.R.C: 0.754 and 0.881 and 1.132
  RPPA RSK1.R.V: 0.828 and 0.819
  RPPA RSK.R.C: 1.012 and 0.889 and 1.017
  RPPA Rab11.R.C: 1.004 and 1.130
  RPPA Rab25.R.V: 0.958 and 1.084
  RPPA Rad17_pS645.R.V: 0.998 and 1.234 and 0.987
  RPPA Rad23A.R.C: 0.881 and 0.793 and 1.163
  RPPA Rad50.R.V: 1.028
  RPPA Rad51.R.C: 0.897 and 0.995 and 0.927
  RPPA Raptor.R.V: 0.847 and 1.006 and 1.049
  RPPA Rb.M.Q: 1.078 and 0.962 and 0.891
  RPPA Rb_pS807_S811.R.V: 0.920 and 0.719 and 1.081
  RPPA Rheb.M.C: 1.252 and 1.239
  RPPA Rictor.R.C: 0.967
  RPPA Rictor_pT1135.R.V: 1.012 and 1.102 and 1.115
  RPPA S6.M.V: 1.262 and 0.956 and 0.729
  RPPA S6_pS235_S236.R.V: 0.203 and 0.249 and 0.565
  RPPA S6_pS240_S244.R.V: 0.207 and 0.313 and 0.749
  RPPA SCD.M.V: 1.014 and 0.906 and 0.962
  RPPA SDHA.R.V: 1.002 and 1.200
  RPPA SF2.R.V: 1.008 and 0.980
  RPPA SFRP1.R.V: 1.055 and 0.981 and 0.922
  RPPA SGK1.R.V: 0.787 and 0.759 and 0.980
  RPPA SGK3.R.V: 1.047 and 1.079 and 0.942
  RPPA SHP2.R.V: 1.046 and 1.001 and 0.967
  RPPA SHP.2_pY542.R.C: 1.101
  RPPA SIRPαR.V: 1.429 and 0.758 and 0.756
  RPPA SLC1A5.R.C: 1.116 and 0.885 and 1.238
  RPPA SOD1.M.V: 0.930 and 1.026 and 0.944
  RPPA SOD2.R.V: 1.210 and 1.153 and 0.970
  RPPA SOX7.R.V: 1.129 and 1.097 and 1.010
  RPPA STING.R.V: 1.022 and 0.890 and 0.979
  RPPA Shc_pY317.R.C: 0.878 and 1.001 and 1.156
  RPPA Slfn11.G.C: 1.081 and 0.905 and 0.999
  RPPA Smac.M.Q: 1.032 and 0.944 and 0.954
  RPPA Smad1.R.V: 0.952 and 1.150 and 1.141
  RPPA Smad3.R.V: 1.122 and 1.116
  RPPA Smad4.R.V: 1.439 and 1.061 and 0.837
  RPPA Snail.M.Q: 0.766 and 0.784 and 0.712
  RPPA Sox2.R.V: 1.214 and 1.389
  RPPA Sox17.R.V: 0.937 and 0.923
  RPPA Src.M.V: 0.956 and 1.011 and 0.918
  RPPA Src_pY416.R.V: 0.994 and 1.111 and 0.997
  RPPA Src_pY527.R.V: 1.022 and 1.387 and 1.151
  RPPA Stat1_pY701.R.V: 1.097 and 1.029 and 0.986
  RPPA Stat3.R.C: 0.851 and 0.986 and 1.101
  RPPA Stat3_pY705.R.C: 1.728 and 1.194 and 0.922
  RPPA Stat5a.R.V: 0.903 and 1.373 and 1.278
  RPPA Stathmin.1.R.V: 0.916 and 0.858 and 0.997
  RPPA Syk.M.V: 0.934 and 1.057 and 0.933
  RPPA Synaptophysin.R.C: 1.153 and 0.998 and 0.965
  RPPA TAZ.R.V: 0.631 and 0.534 and 0.991
  RPPA TEAD.R.C: 0.716 and 1.191
  RPPA TFAM.R.V: 0.999 and 0.944 and 0.992
  RPPA TFRC.R.V: 0.895 and 0.844 and 1.062
  RPPA TIGAR.R.V: 1.012 and 1.022 and 1.077
  RPPA TRAP1.M.V: 0.979 and 0.864 and 0.990
  RPPA TRIM24.R.C: 1.117 and 0.958
  RPPA TRIM25.R.C: 0.754 and 0.868 and 1.058
  RPPA TRIP13.R.V: 1.019 and 0.950 and 0.966
  RPPA Tau.M.C: 1.147 and 1.195 and 0.925
  RPPA Transglutaminase.M.V: 0.881 and 1.342 and 1.747
  RPPA level HLA.DQA1.R.V: 1.062 and 1.076 and 0.920
  RPPA level HLA.DR.DP.DQ.DX.R.C: 1.376 and 1.011 and 0.963
  RPPA level HMHA1.R.V: 1.204
  RPPA level HNRNPK.R.V: 1.033 and 1.100
  RPPA level HSP27.M.C: 0.818 and 0.879 and 0.896
  RPPA level HSP27_pS82.R.V: 0.857 and 1.102 and 1.157
